Source: patent publication US7495017B2, “Phosphodiesterase 4 inhibitors” (Memory Pharmaceuticals Corporation, priority 2003, dated 2009)

SMILES: COc1ccc(-c2ccn[nH]2)cc1O[C@@H]1CCOC1 [Example 1B, 3-[4-Methoxy-3-(3R)-tetrahydrofuranyloxyphenyl]-1H-pyrazole]
- melting point: 149 to 151 °C
